# Experimental data as given in patent US12029716B2, “Derivatives of korormicin useful as antibiotics” (Viotika Life Sciences Inc., priority 2015, dated 2024).
# Several values for one entry are separate records, joined by “and”; a condition that tells them apart may be missing. Identical values can stand only once. Entries after “also recorded” stand apart in the source; their conditions may differ. Like-named read-outs stand apart in the source and are kept apart here.
# How the values were obtained:
# [1] = molecular target: T1, Na^+-NQR (Vibrio cholerae serotype O1, UniProt Q9KPS2); experiment: Na+-NQR activity (dNADH oxidation) in sub-bacterial V. cholerae vesicles; type: biochemical
# T1 construct: being placed in its native membrane; endogenous in cells; sub-bacterial membrane vesicles made by French press
# [2] = molecular target: Na^+-NQR; conditions: cited from earlier work
# [3] = test system: Chlamydia trachomatis; experiment: C. trachomatis infection of HeLa cells (chlamydial inclusions, immunocytochemistry); type: cell-based; conditions: for MCC2, Minimal Chlamydicidal Concentration: after 2 passages with treatment
# Procedure: Chlamydia trachomatis (C. trachomatis) propagation and treatment were carried out as follows. C. trachomatis was propagated in HeLa cells. The titer of C. trachomatis was determined in cyclohexamide-treated HeLa cells, and concentrations used were expressed as inclusion forming units (IFU) per mL.
# Assessment of the level of infection was determined as follows. HeLa cells were seeded on glass coverslips in 24-well plates at 3×10^4 cells/well and inoculated with C. trachomatis and then treated with antibiotic (or other compounds of interest). After 48 hours, the infected cells were fixed with 100% methanol and then incubated with anti-Chlamydia monoclonal antibody. Inclusion bodies were visualized by staining with FITC-conjugated secondary antibody and DAPI as counterstaining. The samples were examined by a fluorescence microscopy. Number of inclusions was calculated per 100 cells.
# Assessment of antichlamydial activity of Korormicin (Scheme shown in FIG. 1) and PEG-2 (Scheme shown in FIG. 2) were performed as follows. Cells were infected with C. trachomatis and treated with different concentrations of antibiotic of choice. After 48 h of C. trachomatis was collected (P1) and used to infect fresh cells. Subsequent collections of C. trachomatis were used to obtain P2, P3, P4 and P5 stocks of C. trachomatis. Dilution of C. trachomatis used to infect cells after treatment with PEG-2 had to be minimized in order to visualize inclusions. Last passage collection of C. trachomatis (P5) of Korormicin treatment and all collected of passages of C. trachomatis treated with PEG-2 were used to establish infectivity of treated Chlamydia (Scheme shown in FIG. 3).
# For MIC50 (Minimal Concentration of the antibiotic that inhibits formation of chlamydial inclusions on 50%) determination HeLa cells were grown in 24-well or 96 well plates overnight prior to chlamydial inoculation. Elementary bodies were applied to the cells in small volume of SPG (0.22 M sucrose, 8.6 mM Na2HPO4, 3.8 mM KH2PO4, 5 mM glutamic acid, 0.2 μm-filtered, pH 7.4) and after 2 hours of incubation unattached elementary bodies were removed and infected cells were treated with different concentration of antibiotics in Dulbecco's modified Eagle's medium (DMEM, Invitrogen) with 5% fetal bovine serum (FBS, Invitrogen) in the presence of cycloheximide (1.0 μg/ml). After 42 h inclusions were visualized by immunocytochemistry.
# To determent chlamydicidal effect of Korormicin (Scheme 1) and PEG-2 (Scheme 2) Hela cells were infected with C. trachomatis and treated with different concentrations of antibiotics. After 48 h of C. trachomatis was collected (P1) and used to infect fresh cells. Subsequent collections of C. trachomatis were used to obtain P2, P3, P4 and P5 stocks of C. trachomatis. Dilution of C. trachomatis used to infect cells after treatment with PEG-2 had to be minimized in order to visualize inclusions. (See Scheme 2 below). Last passage collection of C. trachomatis (P5) of Korormicin treatment and all collected of passages of C. trachomatis treated with PEG-2 were used to establish infectivity of treated C. trachomatis. Minimal chlamydicidal concentration (MCC2) for Korormicin, PEG-2 and PEG-2S was calculated after 2 passages of infection with treatment and reflect inhibition of infection for more than 90%. In all experiments inclusions were visualized by immunocytochemistry.
# Cells were seeded on glass coverslips in 24-well plates (2-4×10^4 cells/well) or on glass-bottom 96 well plates (10^4 cells/well), and after overnight inoculated with C. trachomatis. After 42 hours, the infected cells were fixed with 90% acetone (or 100% methanol in case of 96 well plates) and then incubated with anti-Chlamydia antibody (Thermo Fisher Scientific). Alexa Fluor 488-conjugated anti-rabbit IgG (Molecular Probes) was used as secondary antibody. DAPI staining solution (300 nM) was added to the coverslips to identify nuclei. […]
# [4] = test system: primary Vascular Smooth Muscle cells; experiment: Cell toxicity / proliferation assay, primary vascular smooth muscle cells; type: cell-based, human; conditions: for toxicity to primary cells (in words): primary Vascular Smooth Muscle cells
# Procedure: (§1) Cell Toxicity Assay was performed as follows. HeLa, HEK293 and primary VSM cells were seeded at 5×10^3 cells/well in 96-well plates and incubated with Korormicin, PEG-2 or homoserine lactones in DMEM containing 1% fetal bovine serum (FBS; Invitrogen Corp.). After 48 hours, the number of living cells was determined by a colorimetric enzyme assay, based on a cytoplasmic enzyme activity present in viable cells.
# Cells were seeded at 5×10^3 cells/well in 96-well plates and incubated with C. trachomatis in DMEM containing 1% fetal bovine serum (FBS; Invitrogen Corp.). After 48 hours, the number of living cells was determined by a colorimetric enzyme assay (CellTiter 96 Cell Proliferation Assay; Promega Corporation, Madison, WI) based on a cytoplasmic enzyme activity present in viable cells. (Cory et al. Use of an aqueous soluble tetrazolium/formazan assay for cell growth assays in culture. Cancer Commun. 1991; 3:207-212). The absorbance of a formazan product in tissue culture media was measured at 500 nm using a microplate reader.
# [5] = test system: HeLa cell line; experiment: Cell toxicity assay, HeLa cells; type: cell-based, human
# Procedure: as §1
# [6] = physchem; type: physicochemical; conditions: organic solvent or mixture
# [7] = test system: Lactococcus lactis; experiment: Growth of free-living bacteria in liquid medium (OD600); conditions: 1.0 to 50 μM
# [8] = test system: Escherichia coli; experiment: as above; conditions: 1.0 to 50 μM
# [9] = test system: C. difficile ATCC 700057; experiment: Susceptibility test of Clostridium difficile growth; type: cell-based; conditions: 0.5 μM-50 μM
# Procedure: Evaluation of a PEG-2S against Clostridium difficile (C. difficile ATCC 700057) was performed by Drop method on pre-reduced BAK plates according to Performance Standards for Antimicrobial Susceptibility Testing (Methods for Antimicrobial Susceptibility Testing of Anaerobic Bacteria; Approved Standard—Eighth Edition; Volume 32 Number 5, 2012).
# [10] = test system: HEK293 cells infected with C. trachomatis; experiment: Intracellular sodium in HEK293 cells infected with C. trachomatis; type: cell-based, human; conditions: 1 and 2.5 μM (low μM)
# Procedure: (§2) pHrodo™ Green AM and CoroNa Green Sodium Indicator (both Molecular Probes, Invitrogen) were used to measure intracellular pH (pHi) and intracellular sodium (Na^+i) concentration. HEK293 cells were seeded on 24 well plates and infected with C. trachomatis after overnight incubation in DMEM with 5% FBS. After 2 hours of incubation with C. trachomatis cells were treated with different concentrations of PEG-2S and subjected to pHi and Na^+i measurement at different time points according to manufacturer's protocols. In all assessments calibration curves were performed prior to the experiments. Fluorescent inverted microscope (TE-2000s Nikon) was used to obtain images and mean intensity was quantified using NIS Elements imaging software (Nikon, Mississauga, ON).
# [11] = test system: HEK293 cells infected with C. trachomatis; experiment: Intracellular pH in HEK293 cells infected with C. trachomatis; type: cell-based, human
# Procedure: as §2
# [12] = test system: Enterococcus faecalis; experiment: Growth of free-living bacteria in liquid medium (OD600); conditions: 1.0 to 50 μM
# [13] = Chlamydia trachomatis, HeLa, cell culture experimental model, read-out: IC50(Chl), half-maximal inhibition of the proliferation of Chlamydia trachomatis
smiles,measurement,setting,value
"CCCCCCCc1cc(O)c2ccccc2[n+]1[O-] [HQNO, 2-n-heptyl-4-hydroxyquinoline N-oxide]",IC50,[1],130 nM
same,Ki,[2]; read-out: Ki for Na+-NQR,300 nM
"CCCCCCCC[C@H]1O[C@H]1C/C=C/C=C\[C@H](O)CC(=O)NC1=C[C@](C)(CC)OC1=O [Korormicin, (3R,4Z,6E)-N-[(5S)-5-Ethyl-5-methyl-2-oxo-2,5-dihydro-3-furanyl]-3-hydroxy-8-[(2S,3R)-3-octyl-2-oxiranyl]-4,6-octadienamide]",efficacy against C. trachomatis infection (in words),[3],effective
same,"number of inclusions, of control","[3]; 5 consecutive treatments, 15 μM",4.8%
same,IC50,"[3]; Chlamydia trachomatis, HeLa, read-out: MIC501, Minimal Inhibitory Concentration after the treatment, first treatment",8.28 µg/mL
same,IC50,"[3]; Chlamydia trachomatis, HeLa, read-out: MIC501, Minimal Inhibitory Concentration after the treatment, first treatment, 50% inhibition of inclusion formation",18000 nM
same,IC50,"[3]; Chlamydia trachomatis, HeLa, read-out: MIC502, Minimal Inhibitory Concentration after the second treatment, second treatment",10 µM and 4.6 µg/mL
same,concentration effective against C. trachomatis,[3]; cell culture models,10 to 20 µM
same,"number of chlamydial inclusions, of control","[3]; five consecutive treatments, 20 μM",less than 2%
same,lowering of the cell titer,"[4]; VSMC proliferation, 5 to 15 μM",~10%
same,toxicity to primary cells (in words),[4],toxic
same,Ki,"[2]; isolated Na+-NQR, listed as korormicin, read-out: inhibitor constant (Ki) of quinone reduction by Na+-NQR",~0.08 nM
same,Ki,"[2]; isolated Na+-NQR, read-out: inhibitor constant (Ki) of quinone reduction by Na+-NQR",0.082 nM
same,Ki,"[2]; preparations of isolated enzyme, read-out: Ki",~0.08 nM
CCCCCCCCCC(=O)CC(=O)N[C@H]1CCOC1=O [N-3-oxo-dodecanoyl-L-Homoserine lactone],Cytotoxicity on HeLa cell line,[5]; 12.5 μM,yes
same,Cytotoxicity on HeLa cell line,[5]; 25 μM,yes
same,Cytotoxicity on HeLa cell line,[5]; 50 μM,yes
same,Cytotoxicity on HeLa cell line,[5]; 100 μM,yes
same,toxicity to human cells (in words),[5]; HeLa,highly toxic
CCCC(=O)N[C@H]1CCOC1=O [N-butyryl-L-Homoserine lactone],Anti-Chlamydial effect,[3]; 12.5 μM,no
same,Anti-Chlamydial effect,[3]; 25 μM,no
same,Anti-Chlamydial effect,[3]; 50 μM,No
same,Anti-Chlamydial effect,[3]; 100 μM,no
same,Cytotoxicity on HeLa cell line,[5]; 12.5 μM,no
same,Cytotoxicity on HeLa cell line,[5]; 25 μM,no
same,Cytotoxicity on HeLa cell line,[5]; 50 μM,no
same,Cytotoxicity on HeLa cell line,[5]; 100 μM,no
CCCCCCCCCC(=O)N[C@H]1CCOC1=O [N-decanoyl-L-Homoserine lactone],Anti-Chlamydial effect,[3]; 12.5 μM,no
same,Anti-Chlamydial effect,[3]; 25 μM,no
same,Anti-Chlamydial effect,[3]; 50 μM,no
same,Anti-Chlamydial effect,[3]; 100 μM,no
same,Cytotoxicity on HeLa cell line,[5]; 12.5 μM,no
same,Cytotoxicity on HeLa cell line,[5]; 25 μM,no
same,Cytotoxicity on HeLa cell line,[5]; 50 μM,no
same,Cytotoxicity on HeLa cell line,[5]; 100 μM,no
CCCCCC(=O)N[C@H]1CCOC1=O [N-hexanoyl-L-Homoserine lactone],Anti-Chlamydial effect,[3]; 12.5 μM,no
same,Anti-Chlamydial effect,[3]; 25 μM,no
same,Anti-Chlamydial effect,[3]; 50 μM,No
same,Anti-Chlamydial effect,[3]; 100 μM,no
same,Cytotoxicity on HeLa cell line,[5]; 12.5 μM,no
same,Cytotoxicity on HeLa cell line,[5]; 25 μM,no
same,Cytotoxicity on HeLa cell line,[5]; 50 μM,no
same,Cytotoxicity on HeLa cell line,[5]; 100 μM,no
CCCCCCC/C=C/C=C\[C@H](O)CC(=O)NC1=C[C@](C)(CC)OC1=O [PEG-2S],solubility,[6],< 25 mM
same,effect on growth,[7],did not affect the growth
same,effect on growth,[8],did not affect the growth
same,IC50,"[3]; Chlamydia trachomatis, HeLa, read-out: IC50(Chl), half-maximal inhibition of the proliferation of Chlamydia trachomatis, cell culture experimental model",700 nM
same,"MCC2, Minimal Chlamydicidal Concentration",[3],0.36 µg/mL
same,"MCC2, Minimal Chlamydicidal Concentration",[3]; inhibition of infection for more than 90%,1.0 µM
same,"MIC501, Minimal Inhibitory Concentration after the treatment",[3]; first treatment,0.25 µg/mL
same,IC50,"[3]; read-out: MIC502, Minimal Inhibitory Concentration after the second treatment, second treatment",250 nM
same,"MIC502, Minimal Inhibitory Concentration after the second treatment",[3]; second treatment,0.09 µg/mL
same,effect on growth,[9],does not affect the growth
same,IC50,[1],1.76 nM
same,effect on intracellular sodium accumulation / changes of [Na+],[10],sensitive; also recorded: prevents changes
same,toxicity to primary cells (in words),[4],low cytotoxicity
same,internal pH of infected cells,"[11]; 1.0 μM, within first 5 hours of infection",~7.6
same,effect on chlamydia-induced acidification,[11]; 2.5 μM,prevented the chlamydia-induced acidification completely
same,effect on changes of cytoplasmic pH,[11]; 1 and 2.5 μM,prevents changes of cytoplasmic pH
same,effect on growth,[12],did not affect the growth
CC[C@@]1(C)C=C(NC(=O)C[C@@H](O)/C=C\C=C\CCCCCCN(C)C(=O)OC(C)(C)C)C(=O)O1 [PEG-6(Boc)],solubility,[6],> 50 mM
same,IC50,[3]; [13],960 nM
CC[C@@]1(C)C=C(NC(=O)C[C@@H](O)/C=C\I)C(=O)O1 [PEG-10],solubility,[6],> 50 mM
same,IC50,[3]; [13],670 nM
CCCCCCCCCCC[C@H](O)CC(=O)NC1=C[C@](C)(CC)OC1=O [PEG-11],solubility,[6],> 50 mM
same,IC50,[3]; [13],630 nM
CCCCCCC/C=C/C=C\CCC(=O)NC1=C[C@](C)(CC)OC1=O [PEG-14],solubility,[6],> 50 mM
same,IC50,[3]; [13],1200 nM
